These results are taken from patent publication US4783401A (priority 1986, dated 1988).

In data set [1] the test system is V79 cells.
Data set [2] deals with V79 cells. The source holds these as a separate data set.
The next data set has as its system rabbit red cells. The settings on record: in vivo.
For another data set, the system named is cells. The settings on record: cited from earlier work.

As for `O=S(=O)(O)CCCNC1CCCCC1` [CAPS, 3-(Cyclohexylamino)-1-propanesulfonic acid], the “effect on cell doubling time compared to phosphate buffered saline” value (“effect … compared to phosphate buffered saline” below) in the data set with Yac cells was “negligable effects on cell doubling time”.
Still for that read-out and setting: under `O=S(=O)(O)CC(O)CN(CCO)CCO` (stereo not drawn) [DIPSO, 3-[N--N--bis(2-hydroxyethyl)amino]-2-hydroxypropane-sulfonic acid] stands “negligable effects on cell doubling time”.
Consider `CCCCCCCCCCCCCCN1C(=CC=Cc2oc3ccccc3[n+]2CCCCCCCCCCCCCC)Oc2ccccc21` [DiOC14 (3)], for which the “Cell doubling time of stained cells” value in the data set with V79 cells [1] is “unaffected”. For the same compound, in the data set on V79 cells [2], the “Effect on cell viability, Propidium Iodide exclusion” value was “absence of effect on cell viability” and the “Effect on cell viability, Trypan Blue Exclusion” value is “absence of effect on cell viability”.
For the compound `CCCCCCCCCCCCCCN1C(=CC=CC=Cc2sc3ccccc3[n+]2CCCCCCCCCCCCCC)Sc2ccccc21` [DiSC14 (5)], in the data set on rabbit red cells, the “effect on clearance rate of red blood cells” value is reported as “did not affect the clearance rate of red blood cells” and the “lifetime of labelled red cells in circulation” value stood at 52 days.
Regarding `O=S(=O)(O)CCCN1CCN(CCO)CC1` [EPPS, N--(2-Hydroxyethyl)piperazine-N'--3-propanesulfonic acid], in the data set on Yac cells, the “effect … compared to phosphate buffered saline” value is listed as “negligable effects on cell doubling time”.
Take `O=C[C@H](O)[C@@H](O)[C@H](O)[C@H](O)CO` [Glucose]: the “effect … compared to phosphate buffered saline” value in the data set with Yac cells is “negligable effects on cell doubling time”.
The same measure, in the same setting: under `O=S(=O)(O)CC(O)CN1CCN(CCO)CC1` (stereo not drawn) [HEPPSO, N--2-hydroxyethylpiperazine-N'--2-hydroxypropane-sulfonic acid] stands “negligable effects on cell doubling time”.
`OC[C@H]1O[C@@](CO)(O[C@H]2O[C@H](CO)[C@@H](O)[C@H](O)[C@H]2O)[C@@H](O)[C@@H]1O` [Sucrose]: in the data set on Yac cells, the “Doubling Time” value was 41.0 h and the “effect … compared to phosphate buffered saline” value was “negligable effects on cell doubling time”.
Turning to `O=S(=O)(O)CCCNC(CO)(CO)CO` [TAPS, Tris(hydroxymethyl)-methylaminopropane sulfonic acid], in the data set on Yac cells, the “effect … compared to phosphate buffered saline” value is reported as “negligable effects on cell doubling time”.
As for `CCCCN1C(=O)C(=CC=CC=C2Oc3ccccc3N2CCCS(=O)(=O)O)C(=O)N(CCCC)C1=S` [merocyanine 540], the cytotoxicity result with cells is on record as “cytotoxic when the cell is exposed to light”.
Turning to Phosphate Buffered Saline, in the data set with Yac cells, the “Doubling Time” value was found to be 31.0 h.
